Laboratory results taken from US7491827B2, “Aryl sulfonamides useful as inhibitors of chemokine receptor activity” (Millennium Pharmaceuticals, Inc., priority 2003, dated 2009).

biological target: T1, cloned human CCR8 receptor stably expressed in L1.2 cells (Homo sapiens, UniProt P51685); assay: whole cell binding screen: inhibition of biotinylated human I309 binding to CCR8 (FMAT 8100 HTS); details: Ki of compounds to inhibit I-309 binding to CCR8, L1.2/hCCR8 cells, biotinylated human I-309, 10 point concentration response starting at 10 μM
T1 construct: expressed in transfected cells
Method in brief: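 L1.2 murine pre-B cells stably expressing human CCR8 (4.0×10^5 cells/mL) in HBSS/HEPES/fatty-acid-free BSA/azide buffer were mixed with biotinylated human I309 and compounds for 0.5 h, read by FMAT fluorescence. 10-point curves from 10 μM final; percent inhibition normalized to no-inhibitor and 100 nM unlabeled I309 controls.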

T1 sequence (P51685 whole entry): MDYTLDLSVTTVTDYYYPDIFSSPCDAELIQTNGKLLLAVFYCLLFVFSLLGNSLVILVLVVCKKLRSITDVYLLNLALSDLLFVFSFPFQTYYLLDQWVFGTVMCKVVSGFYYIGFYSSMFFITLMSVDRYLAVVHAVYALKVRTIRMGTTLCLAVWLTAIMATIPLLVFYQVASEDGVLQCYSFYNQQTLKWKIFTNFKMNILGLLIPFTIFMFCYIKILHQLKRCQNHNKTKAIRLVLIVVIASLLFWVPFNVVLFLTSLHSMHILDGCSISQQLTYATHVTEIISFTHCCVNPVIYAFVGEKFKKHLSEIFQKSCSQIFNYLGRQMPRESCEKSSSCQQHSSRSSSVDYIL

SMILES | Ki [nM]
CCCC(=O)N1CCC(NS(=O)(=O)c2ccc(NC(=O)C3CCCC3)c3ccccc23)CC1 [Compound D-18, Cyclopentanecarboxylic acid [4-(1-butyryl-piperidin-4-ylsulfamoyl)-naphthalen-1-yl]-amide] | < 500

same assay, conditions: L1.2/hCCR8 cells, biotinylated human I-309, 10 point concentration response starting at 10 μM; read-out: Ki of compounds to inhibit I-309 binding to CCR8

SMILES | Ki [nM]
Cc1cccc(NC(=O)c2ccc(S(=O)(=O)NC3CCNCC3)c3ccccc23)c1C [Compound F-16, 4-(Piperidin-4-ylsulfamoyl)-naphthalene-1-carboxylic acid (2,3-dimethyl-phenyl)-amide] | < 30000
Cc1ccccc1C(=O)Nc1cccc2c(S(=O)(=O)Nc3ccc(Cl)cc3)cccc12 [Compound H-21, N-[5-(4-Chloro-phenylsulfamoyl)-naphthalen-1-yl]-2-methyl-benzamide] | < 1000
CCCC(=O)N1CCC(NS(=O)(=O)c2ccc(NC(=O)c3ccccc3C)c3ccccc23)C(C)(C)C1 (racemic) [Compound C-23, (±)-N-[4-(1-Butyryl-3,3-dimethyl-piperidin-4-ylsulfamoyl)-naphthalen-1-yl]-2-methyl-benzamide] | < 30000
CCCC(=O)N1CCC(NS(=O)(=O)c2cc3c(c(NC(=O)c4ccccc4Cl)c2)CCCC3)CC1 [Compound H-63, N-[3-(1-Butyryl-piperidin-4-ylsulfamoyl)-5,6,7,8-tetrahydro-naphthalen-1-yl]-2-chloro-benzamide] | < 30000
CCc1ccc(NS(=O)(=O)c2ccc3cccc(NC(=O)c4ccccc4)c3c2)cc1 [Compound H-49, N-[7-(4-Ethyl-phenylsulfamoyl)-naphthalen-1-yl]-benzamide] | < 30000
CCCC(=O)N1C[C@H](C)C(NS(=O)(=O)c2ccc(NC(=O)c3ccccc3C)c3ccccc23)[C@@H](C)C1 (racemic) [Compound C-66, (±)-(cistrans)-N-[4-(1-Butyryl-3,5-dimethyl-piperidin-4-ylsulfamoyl)-naphthalen-1-yl]-2-methyl-benzamide] | < 500
CCNC(=O)N1CC[C@H](NS(=O)(=O)c2ccc(NC(=O)c3ccccc3C)c3ccccc23)[C@@H](C)C1 (racemic) [Compound C-16, (±)-trans-3-Methyl-4-[4-(2-methyl-benzoylanlino)-naphthalene-1-sulfonylamino]-piperidine-1-carboxylic acid ethylaiide] | < 500
Cc1ccccc1C(=O)Nc1ccc(S(=O)(=O)N[C@H]2CCNC[C@@H]2C)c2ccccc12 [Compound J-44] | < 500
Cc1ccccc1C(=O)Nc1ccc(S(=O)(=O)N[C@H]2CCN(C(=O)[C@H]3CCCN3)C[C@H]2C)c2ccccc12 [Compound J-7, (3R, 4S)-2-Methyl-N-{4-[3-methyl-1-((R)pyrrolidine-2-carbonyl)-piperidin-4-ylsuffamoyl]-naphthalen-1-yl}-benzamide] | < 500
O=C(NC1CCCCC1)c1ccc(S(=O)(=O)NC2CCNCC2)c2ccccc12 [Compound F-2, 4-(Piperidin-4-ylsulfamoyl)-naphthalene-1-carboxylic acid cyclohexylamide] | < 30000
CC[C@H]1CN(C(=O)[C@@H]2CCCN2)CC[C@@H]1NS(=O)(=O)c1ccc(NC(=O)c2ccccc2C)c2ccccc12 [Compound J-31, (3S, 4S)-N-{4-[3-Ethyl-1-(pyrrolidine-2-(S)-carbonyl)-piperidin-4-ylsulfamoyl]-naphthalen-1-yl}-2-methyl-benzamide] | < 500
CCOC(=O)N1CC[C@H](NS(=O)(=O)c2ccc(NC(=O)c3ccccc3C)c3ccccc23)[C@H](CO)C1 (racemic) [Compound C-81, (±)-(cis)-3—Hydroxymethyl-4-[4-(2-methyl-benzoylamino)-naphthalene-1-sulfonylamino]-piperidine-1-carboxylic acid ethyl ester] | < 500
Cc1ccccc1C(=O)Nc1ccc(S(=O)(=O)NCCCN2CCOCC2)c2c1CCCC2 [Compound E-25, 2-Methyl-N-[4-(3-morpholin-4-yl-propylsulfamoyl)-5,6,7,8-tetrahydro-naphthalen-1-yl]-benzamide] | < 30000
CCNC(=O)N1CCC(NS(=O)(=O)c2ccc(NC(=O)c3ccccc3C)c3c2CCC3)CC1 [Compound H-69, 4-[7-(2-Methyl-benzoylamino)-indane-4-sulfonylamino]-piperidine-1-carboxylic acid ethylamide] | < 500
CCOC(=O)[C@@H]1CN(Cc2ccccc2)CC[C@H]1NS(=O)(=O)c1ccc(NC(=O)c2ccccc2C)c2ccccc12 (racemic) [Compound A-48, (±)-(trans)-1-Benzyl-4-[4-(2-methyl-benzoylamino)-naphthalene-1-sulfonylamino]-piperidine-3-carboxylic acid ethyl ester] | < 30000
CCOC(=O)N1CCC(NS(=O)(=O)c2cccc3c(NC(=O)C4CCCCC4)cccc23)CC1 [Compound H-7, 4-[5-(Cyclohexanecarbonyl-amino)-naphthalene-1-sulfonylamino]-piperidine-1-carboxylic acid ethyl ester] | < 500
CCOC(=O)N1CCC(NS(=O)(=O)c2ccc(CNC3CCCCC3)c3ccccc23)CC1 [Compound G-8, 4-(4-Cyclohexylainnomethyl-naphthalene-1-suffonylamino)-piperidine-1-carboxylic acid ethyl ester] | < 500

SMILES | Ki [nM]
CCOC(=O)N1CCCC(NS(=O)(=O)c2ccc(NC(=O)c3ccccc3C)c3c2CCCC3)C1 (racemic) [Compound E-31, (±)-3-[4-(2-Methyl-benzoylamino)-5,6,7,8-tetrahydro-naphthalene-1-sulfonylamino]-piperidine-1-carboxylic acid ethyl ester] | < 500
COc1ccc(NS(=O)(=O)c2ccc(NC(=O)Cc3ccccc3)c3ccccc23)cc1 [Compound B-7, N-[4-(4-Methoxy-phenylsulfamoyl)-naphthalen-1-yl]-2-phenyl-acetamide] | < 500
CCOC(=O)[C@@H]1CNCC[C@@H]1NS(=O)(=O)c1ccc(NC(=O)c2ccccc2C)c2ccccc12 [Compound J-55] | < 5000
CCOC(=O)N1CCC(NS(=O)(=O)c2ccc(CNCc3ccccc3)c3ccccc23)CC1 [Compound G-32, 4-[4-(Benzylamino-methyl)-naphthalene-1-sulfonylamino]-piperidine-1-carboxylic acid ethyl ester] | < 500
CN(C)C(=O)N1CCC(NS(=O)(=O)c2ccc(C(=O)N(C)C3CCCCC3)c3ccccc23)CC1 [Compound F-28, 4-[4-(Cyclohexyl-methyl-carbamoyl)-naphthalene-1-sulfonylamino]-piperidine-1-carboxylic acid dimethylamide] | < 500
CCCC(=O)N1CCC(NS(=O)(=O)c2ccc(NC(=O)c3ccccc3C)c3c2CCC3)C1 (racemic) [Compound H-71, (±)-N-[7-(1-Butyryl-pyrrolidin-3-ylsulfamoyl)-indan-4-yl]-2-methyl-benzamide] | < 500
CC(C)(C)OC(=O)N1CCC(NS(=O)(=O)c2ccc(NC(=O)C3CCC3)c3ccccc23)CC1 [Compound B-18, 4-[4-(Cyclobutanecarbonyl-amino)-naphthalene-1-sulfonylamino]-piperidine-1-carboxylic acid tert-butyl ester] | < 30000
CCCS(=O)(=O)N1CCC(NS(=O)(=O)c2ccc(NC(=O)c3ccccc3C)c3ccccc23)CC1 [Compound C-59, 2-Methyl-N-{4-[1-(propane-1-sulfonyl)-piperidin-4-ylsulfamoyl]-naphthalen-1-yl}-benzamide] | < 500
CCNC(=O)N1CCC(NS(=O)(=O)c2ccc(C(=O)NC3CCCCC3)c3ccccc23)CC1 [Compound F-8, 4-(4-Cyclohexylcarbamoyl-naphthalene-1-sulfonylamino)-piperidine-1-carboxylic acid ethylamide] | < 500
Cc1ccccc1C(=O)Nc1ccc(S(=O)(=O)N[C@@H]2CCN(C(=O)[C@@H]3CCCN3)C[C@H]2C)c2ccccc12 [Compound J-1, (3R,4R)-2-(S)-Methyl-N-{4-[3-methyl-1-(pyrrolidine-2-carbonyl)-piperidin-4-ylsulfamoyl]-naphthalen-1-yl}-benzamide] | < 500
CCOC(=O)N1CCC(NS(=O)(=O)c2cccc3c(C(=O)Nc4ccccc4Cl)cccc23)CC1 [Compound H-34, 4-[5-(2-chloro-phenylcarbamoyl)-naphthalene-1-sulfonylamino]-piperidine-1-carboxylic acid ethyl ester] | < 500
CCN(CC)C(=O)N1CCC(NS(=O)(=O)c2ccc(NC(=O)c3ccccc3C)c3ccccc23)CC1 [Compound C-42, 4-[4-(2-Methyl-benzoylamino)-naphthalene-1-sulfonylamino]-piperidine-1-carboxylic acid diethylamide] | < 500
COCC(=O)N1CCC(NS(=O)(=O)c2ccc(NC(=O)c3ccccc3C)c3c2CCCC3)CC1 [Compound E-18, N-{4-[1-(2-Methoxy-acetyl)-piperidin-4-ylsulfamoyl]-5,6,7,8-tetrahydro-naphthalen-1-yl}-2-methyl-benzamide] | < 500
Cc1ccccc1C(=O)Nc1ccc(S(=O)(=O)N[C@H]2CCN(C(=O)[C@H](C)N)C[C@@H]2C)c2ccccc12 [Compound J-2, (3S, 4S)-N-{4-[1-(2-(S)-Amino-propionyl)-3-methyl-piperidin-4-ylsulfamoyl]-naphthalen-1-yl}-2-methyl-benzamide] | < 500
COc1ccc(NS(=O)(=O)c2ccc(NC(=O)c3cccc(OC)c3)c3ccccc23)cc1 [Compound B-5, 3-Methoxy-N-[4-(4-methoxy-phenylsulfamoyl)-naphthalen-1-yl]-benzamide] | < 1000
CCCC(=O)N1CC[C@H](NS(=O)(=O)c2ccc(NC(=O)c3ccccc3C)c3ccccc23)[C@H](CO)C1 (racemic) [Compound C-80, (±)-(cis)-N-[4-(1-Butryl-3-hydroxymethyl-piperidin-4-ylsulfamoyl)-naphthalen-1-yl]-2-methyl-benzamide] | < 500
